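Following 48 hours of exposure in 96-well plates, responses at five concentrations were used to interpolate endpoints linearly. GI50 = concentration required for 50% inhibition of growth.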 Activity calls are given as the source filed them. Rule as the data show it: active = GI50 up to about 1.1 µM and inactive = higher.
Legend:
Assay in all cases: NCI tumour cell line growth inhibition, 48 h
HOP-62 = test system: HOP-62
NCI-H522 = test system: NCI-H522
A549 = test system: A549
CAKI-1 = test system: CAKI-1
OVCAR-3 = test system: OVCAR-3
MOLT-4 = test system: MOLT-4
OVCAR-4 = test system: OVCAR-4
SN12C = test system: SN12C
HCC 2998 = test system: HCC 2998
HT-29 = test system: HT-29
ACHN = test system: ACHN
SK-MEL-28 = test system: SK-MEL-28
OVCAR-5 = test system: OVCAR-5
SF-295 = test system: SF-295
UO-31 = test system: UO-31
SW-620 = test system: SW-620
UACC-257 = test system: UACC-257
SNB-75 = test system: SNB-75
SF-268 = test system: SF-268
SK-MEL-5 = test system: SK-MEL-5

SMILES	GI50 (HOP-62)	GI50 (NCI-H522)	GI50 (A549)	GI50 (CAKI-1)	GI50 (OVCAR-3)	GI50 (MOLT-4)	GI50 (OVCAR-4)	GI50 (SN12C)	GI50 (HCC 2998)	GI50 (HT-29)	GI50 (ACHN)	GI50 (SK-MEL-28)	GI50 (OVCAR-5)	GI50 (SF-295)	GI50 (UO-31)	GI50 (SW-620)	GI50 (UACC-257)	GI50 (SNB-75)	GI50 (SF-268)	GI50 (SK-MEL-5)
Cc1nc(Nc2nc3ccccc3[nH]2)[nH]c(=O)c1CCO	> 100 µM (inactive)	> 100 µM (inactive)	> 100 µM (inactive)	53.5 µM (inactive)	> 100 µM (inactive)	> 100 µM (inactive)	> 100 µM (inactive)	> 91.6 µM (inactive)	> 100 µM (inactive)	> 100 µM (inactive)	50.9 µM (inactive)	> 100 µM (inactive)	> 86.9 µM (inactive)	> 100 µM (inactive)	46.8 µM (inactive)	99.8 µM (inactive)	45.8 µM (inactive)	> 100 µM (inactive)	> 96.6 µM (inactive)	70.3 µM (inactive)
COc1ccc(CC/N=C2\CCC(C(=O)NCCc3ccc(OC)c(OC)c3)N2)cc1OC (stereo not given)	> 100 µM (inactive)	> 100 µM (inactive)	> 100 µM (inactive)	> 100 µM (inactive)	> 100 µM (inactive)	> 100 µM (inactive)	> 100 µM (inactive)	> 100 µM (inactive)	> 100 µM (inactive)	> 100 µM (inactive)	> 100 µM (inactive)	> 100 µM (inactive)	> 100 µM (inactive)	> 100 µM (inactive)	> 100 µM (inactive)	> 100 µM (inactive)	> 100 µM (inactive)	> 100 µM (inactive)	> 100 µM (inactive)	> 100 µM (inactive)
COc1ccc(C2=C(Cl)c3cc(OC)c(OC)cc3C2Cl)cc1 (stereo not given)	17.8 µM (inactive)	12.5 µM (inactive)	15.4 µM (inactive)	15.4 µM (inactive)	16.8 µM (inactive)	4.34 µM (inactive)	13.6 µM (inactive)	13.5 µM (inactive)	14.3 µM (inactive)	14.8 µM (inactive)	13.9 µM (inactive)	16 µM (inactive)	15.5 µM (inactive)	15.4 µM (inactive)	6.55 µM (inactive)	15.3 µM (inactive)	17.1 µM (inactive)	0.499 µM (active)	16 µM (inactive)	13.7 µM (inactive)
S=c1sc2cscc2s1	32.8 µM (inactive)	19.3 µM (inactive)	19.5 µM (inactive)	16.8 µM (inactive)	19.5 µM (inactive)	34.4 µM (inactive)	16.4 µM (inactive)	32.6 µM (inactive)	18.7 µM (inactive)	44.1 µM (inactive)	19.4 µM (inactive)	21.9 µM (inactive)	69.2 µM (inactive)	54.1 µM (inactive)	19.1 µM (inactive)	20.7 µM (inactive)	22.3 µM (inactive)	16.7 µM (inactive)	31.4 µM (inactive)	27.9 µM (inactive)
COc1ccc(C2C(N)=NCC2c2ccccn2)cc1 (stereo not given)	> 100 µM (inactive)	> 100 µM (inactive)	> 100 µM (inactive)	> 100 µM (inactive)	> 100 µM (inactive)	> 100 µM (inactive)	> 100 µM (inactive)	> 100 µM (inactive)	> 100 µM (inactive)	> 100 µM (inactive)	> 100 µM (inactive)	> 100 µM (inactive)	> 100 µM (inactive)	> 100 µM (inactive)	> 100 µM (inactive)	> 100 µM (inactive)	> 100 µM (inactive)	> 100 µM (inactive)	> 100 µM (inactive)	> 100 µM (inactive)
CC(=O)OCC1=C(COC(C)=O)C(=O)c2c(O)ccc(O)c2C1=O	21 µM (inactive)	1.55 µM (inactive)	17.4 µM (inactive)	5.66 µM (inactive)	7.1 µM (inactive)	1.37 µM (inactive)	10.8 µM (inactive)	10.4 µM (inactive)	15.9 µM (inactive)	11.7 µM (inactive)	10.2 µM (inactive)	4.9 µM (inactive)	16.4 µM (inactive)	13.4 µM (inactive)	15.4 µM (inactive)	3.21 µM (inactive)	5.14 µM (inactive)	16.1 µM (inactive)	13.8 µM (inactive)	14.8 µM (inactive)

Reference: ChEMBL document CHEMBL1201862, “PubChem BioAssay data set” (2004)
